From patent publication US10039282B2, “Six-membered C—N-bonded aryl sulphide and aryl sulphoxide derivatives as pesticides” (BAYER CROPSCIENCE AKTIENGESELLSCHAFT, priority 2013, dated 2018)
Where two headings read alike, the source gives them in different places.

Columns and labels:
Phaedon cochleariae [1] = experiment: Phaedon cochleariae spray test; assay type: in vivo; settings: 500 g/ha, after 7 days
Experimental: 3. Phaedon cochleariae—Spray Test
Solvent: 78.0 parts by weight of acetone • • 1.5 parts by weight of dimethylformamide Emulsifier: alkylaryl polyglycol ether
(§1) To produce an appropriate active compound formulation, 1 part by weight of active compound is dissolved using the specified parts by weight of solvent and made up with water containing an emulsifier concentration of 1000 ppm until the desired concentration is attained. To produce further test concentrations, the preparation is diluted with emulsifier-containing water.
(§2) Discs of Chinese cabbage leaves (Brassica pekinensis) are sprayed with an active compound formulation of the desired concentration and, after drying, populated with larvae of the mustard beetle (Phaedon cochleariae).
After 7 days, the efficacy in % is determined 100% means that all the beetle larvae have been killed; 0% means that no beetle larvae have been killed.

Tetranychus urticae [2] = experiment: Tetranychus urticae spray test, OP-resistant (bean leaf discs); assay type: in vivo; settings: 500 g/ha, after 6 days
Experimental: 4. Tetranychus urticae—Spray Test, OP-Resistant
(§3) Solvent: 78.0 parts by weight of acetone
(§4) • 1.5 parts by weight of dimethylformamide Emulsifier: alkylaryl polyglycol ether
To produce further test concentrations, the preparation is diluted with emulsifier-containing water.
After 6 days, the efficacy in % is determined. 100% means that all the spider mites have been killed; 0% means that none of the spider mites have been killed.

Meloidogyne incognita [3] = experiment: Meloidogyne incognita test (sand, lettuce, gall formation after 14 days); assay type: in vivo; settings: 20 ppm
Experimental: 2. Meloidogyne Incognita Test
Solvent: 125.0 parts by weight of acetone
To produce an appropriate active compound formulation, 1 part by weight of active compound is mixed with the stated amount of solvent and the concentrate is diluted with water to the desired concentration.
Vessels are filled with sand, active compound solution, an egg/larvae suspension of the southern root-knot nematode (Meloidogyne incognita) and lettuce seeds. The lettuce seeds germinate and the plants develop. The galls develop on the roots.
After 14 days, the nematicidal efficacy in % is determined by the formation of galls. 100% means that no galls were found; 0% means that the number of galls on the treated plants corresponds to the untreated control.

Boophilus microplus = Boophilus microplus injection test; assay type: in vivo; settings: 20 μg/animal, assessed after 7 days
Experimental: 1. Boophilus microplus—Injection Test
Solvent: dimethyl sulphoxide
To produce an appropriate active compound formulation, 10 mg of active compound are mixed with 0.5 ml of solvent and the concentrate is diluted with solvent to the desired concentration.
1 μl of the active compound solution is injected into the abdomen of 5 engorged adult female cattle ticks (Boophilus microplus). The animals are transferred into dishes and kept in a climate-controlled room.
The efficacy is assessed after 7 days by laying of fertile eggs. Eggs which are not visibly fertile are stored in a climate-controlled cabinet until the larvae hatch after about 42 days. An efficacy of 100% means that none of the ticks has laid any fertile eggs; 0% means that all the eggs are fertile.

Meloidogyne incognita [4] = experiment: Meloidogyne incognita test (soil drench, gall formation after 21 days); assay type: in vivo; settings: 8 ppm
Experimental: 5. Meloidogyne incognita Test
(§5) Solvent: 7 parts by weight of dimethylformamide
Emulsifier: 2.5 parts by weight of alkylaryl poly glycol ether
To produce an appropriate active compound formulation, 1 part by weight of active compound is mixed with the stated amounts of solvent and emulsifier, and the concentrate is diluted with water to the desired concentration, it being necessary to include the volume of soil which is drenched in the calculation. It should be ensured that a concentration of 20 ppm of emulsifier in the soil is not exceeded. To produce further test concentrations, water is used for dilution.
Pots filled with soil (loamy sand) are watered with the active compound solution. An egg/larvae suspension of the southern root-knot nematode (Meloidogyne incognita) is added, lettuce seeds are scattered over the surface of the soil, and they are covered over with quartz sand. The lettuce seeds germinate and the plants develop. The galls develop on the roots.
After 21 days, the nematicidal efficacy in % is determined by the formation of galls. 100% means that no galls have been found; 0% means that the number of galls on the treated plants corresponds to the untreated control.

Phaedon cochleariae [5] = experiment: whole plant or invertebrate; assay type: in vivo; settings: 168 h
Experimental: 1. Phaedon cochleariae—Spray Test (PHAECO)
as §3, §4, §1, §2
After the desired period of time, the effect in % is determined. 100% means that all the beetle larvae have been killed; 0% means that no beetle larvae have been killed.

[6] = log P by reversed-phase HPLC analogously to OECD Guideline 117; assay type: physicochemical; settings: reversed-phase C18 HPLC column
Experimental: The log P values were determined analogously to OECD Guideline 117 (EC Directive 92/69/EEC) by HPLC (high-performance liquid chromatography) using reversed-phase columns (C 18), by the following methods:
[a] The LC-MS determination in the acidic range is effected at pH 2.7 with 0.1% aqueous formic acid and acetonitrile (contains 0.1% formic acid) as eluents; linear gradient from 10% acetonitrile to 95% acetonitrile. log P^[…] is also referred to as log P(HCOOH). [b] LC-MS determination in the neutral range is effected at pH 7.8 with 0.001 molar aqueous ammonium hydrogencarbonate solution and acetonitrile as eluents; linear gradient from 10% acetonitrile to 95% acetonitrile. log P^[…] is also referred to as log P(neutral).
Calibration is effected with solutions of a homologous series of unbranched alkan-2-ones (having 3 to 16 carbon atoms) with known log P values (log P values determined on the basis of the retention times by linear interpolation between two successive alkanones).

Tetranychus urticae [7] = experiment: Comparative Tetranychus urticae spray test, OP-resistant (TETRUR); assay type: in vivo; settings: 144 h
Experimental: 2. Tetranychus urticae—Spray Test; OP-Resistant ([…])
as §3, §4, §1
Discs of bean leaves (Phaseolus vulgaris) infested by all stages of the greenhouse red spider mite (Tetranychus urticae) are sprayed with an active compound formulation of the desired concentration.
After the desired period of time, the effect in % is determined 100% means that all the spider mites have been killed; 0% means that none of the spider mites have been killed.

Tetranychus urticae [8] = experiment: Tetranychus urticae spray test, OP-resistant (bean plants); assay type: in vivo; settings: 20 ppm, after 7 days
Experimental: 6. Tetranychus urticae—Spray Test, OP-Resistant
as §5
Emulsifier: alkylaryl polyglycol ether
as §1, with “water. If the addition of ammonium salts or/and penetrants is required, these are each added in a concentration of 1000 ppm to the formulation solution.” for “water.”
Bean plants (Phaseolus vulgaris) heavily infested by all stages of the greenhouse red spider mite (Tetranychus urticae) are treated by spraying with the active compound formulation in the desired concentration.
After 7 days, the efficacy in % is determined. 100% means that all the spider mites have been killed; 0% means that none of the spider mites have been killed.

[9] = acidic range, pH 2.7, 0.1% aqueous formic acid/acetonitrile, read-out: logP (HCOOH)
[10] = neutral range, pH 7.8, 0.001 molar aqueous ammonium hydrogencarbonate/acetonitrile, read-out: logP (neutral)

Compound | efficacy (beetle larvae killed) (Phaedon cochleariae [1]) [%] | efficacy (spider mites killed) (Tetranychus urticae [2]) [%] | nematicidal efficacy (formation of galls) (Meloidogyne incognita [3]) [%] | efficacy (no fertile eggs laid) (Boophilus microplus) [%] | also measured
Cc1cc(=O)n(-c2cc([S+]([O-])CC(F)(F)F)c(C)cc2F)cn1 (racemic) [Example 46] | 83 | 100 |  |  | 
Cc1ccc(-n2cncc(F)c2=O)cc1SCC(F)(F)F [Example 12] |  | 90 | 90 |  | 
Cc1cc(C)c([S+]([O-])CC(F)(F)F)cc1-n1cnc(C(F)(F)C(F)(F)F)cc1=O (racemic) [Example 33] |  | 100 | 100 |  | 
Cc1cc(F)c(-n2cnc(C(F)(F)C(F)(F)F)cc2=O)cc1SCC(F)(F)F [Example 9] | 100 | 100 | 90 | 100 | 
Cc1cc(C)c(-n2c(C)nc(C(F)(F)F)cc2=O)cc1SCC(F)(F)F [Example 30] |  | 100 | 90 |  | 
Cc1cc(F)c(-n2cnc(C(F)(F)F)cc2=O)cc1[S+]([O-])CC(F)(F)F (centres unmarked) [Example 2, 3-{2-Fluoro-4-methyl-5-[(2,2,2-trifluoroethyl)sulphinyl]phenyl}-6-(trifluoromethyl)pyrimidin-4(3H)-one] | 100 | 100 |  | 100 | nematicidal efficacy (formation of galls) (Meloidogyne incognita [4]): 85%; mortality at 500 g/ha (Phaedon cochleariae [5]): 100%; chromatographic logP [6, 9]: 2.4; chromatographic logP [6, 10]: 2.38
Cc1cc(F)c(-n2cnc(C(F)(F)C(F)(F)F)cc2=O)cc1[S+]([O-])CC(F)(F)F (single isomer, unassigned) [Example 18] | 83 | 100 |  |  | 
Cc1cc(Cl)c(-n2cnc(C(F)(F)F)cc2=O)cc1[S+]([O-])CC(F)(F)F (racemic) [Example 53] | 100 | 100 |  | 100 | 
Cc1ccc(-n2cncc(C)c2=O)cc1[S+]([O-])CC(F)(F)F (racemic) [Example 27] |  |  | 90 |  | 
Cc1cc(C)c([S+]([O-])CC(F)(F)F)cc1-n1cnc(C(F)(F)F)cc1=O (racemic) [Example 6, 3-[2,4-Dimethyl-5-(2,2,2-trifluoroethylsulphinyl)phenyl]-6-(trifluoromethyl)pyrimidin-4-one] |  | 100 |  | 100 | mortality at 20 g/ha (Tetranychus urticae [7]; TETRUR, 20 g/ha, 6 dat, read-out: % mortality): 100%; chromatographic logP [6, 9]: 2.43; chromatographic logP [6, 10]: 2.39
Cc1cc(C)c([S+]([O-])CC(F)(F)F)cc1-n1cnc(C(F)(F)C(F)(F)F)cc1=O (racemic) [Example 45] |  | 100 | 100 |  | 
Cc1cc(F)c(-n2cnc(C(F)F)cc2=O)cc1[S+]([O-])CC(F)(F)F (racemic) [Example 55] | 100 | 100 |  |  | 
Cc1cc(C)c([S+]([O-])CC(F)(F)F)cc1-n1cnc(C(F)(F)F)cc1=O (single isomer, unassigned) [Example 56] |  |  |  |  | efficacy (spider mites killed) (Tetranychus urticae [8]): 100%
O=c1cc(C(F)(F)F)ncn1-c1cc([S+]([O-])CC(F)(F)F)c(Br)cc1F (racemic) [Example 41] |  | 100 | 90 |  | 
Cc1cc(C)c([S+]([O-])CC(F)(F)F)cc1-n1cnc(C(F)(F)F)cc1=O (single isomer, unassigned) [Example 49] |  |  |  |  | efficacy (spider mites killed) (Tetranychus urticae [8]): 100%
Cc1cc(C)c(-n2cnc(C(F)(F)F)cc2=O)cc1SCC(F)(F)F [Example 5, 3-[2,4-Dimethyl-5-(2,2,2-trifluoroethylsulphanyl)phenyl]-6-(trifluoromethyl)pyrimidin-4-one] |  | 100 |  | 100 | chromatographic logP [6, 9]: 3.56; chromatographic logP [6, 10]: 3.5
N#Cc1cc(F)c(-n2cnc(C(F)(F)F)cc2=O)cc1[S+]([O-])CC(F)(F)F (centres unmarked) [5-fluoro-4-[6-oxo-4-(trifluoromethyl)pyrimidin-1-yl]-2-(2,2,2-trifluoroethylsulphinyl)benzonitrile] |  |  |  |  | mortality at 500 g/ha (Phaedon cochleariae [5]): 50%
N#Cc1ccc(-n2cnc(C(F)(F)F)cc2=O)cc1[S+]([O-])CC(F)(F)F (centres unmarked) [4-[6-oxo-4-(trifluoromethyl)pyrimidin-1-yl]-2-(2,2,2-trifluoroethylsulphinyl)benzonitrile, reference compound] |  |  |  |  | mortality at 500 g/ha (Phaedon cochleariae [5]): 0%; mortality at 20 g/ha (Tetranychus urticae [7]): 0%
O=c1cc(C(F)(F)F)ncn1-c1ccc(Cl)c([S+]([O-])CC(F)(F)F)c1 (racemic) [Example 34] | 83 | 100 |  | 100 | 
Cc1cc(=O)n(-c2cc(SCC(F)(F)F)c(C)cc2F)cn1 [Example 44] | 100 | 100 |  |  | 
Cc1cc(F)c(-n2cnc(C(F)(F)C(F)(F)F)cc2=O)cc1[S+]([O-])CC(F)(F)F (single isomer, unassigned) [Example 26] |  | 100 | 90 | 100 | 
